Assay results: patent US20070218456A1, “CELLULAR ASSAYS FOR SIGNALING RECEPTORS” (INVITROGEN CORPORATION, priority 2006, published 2007)
≈ marks a conversion by molar mass, not a printed value.

System: T-REx™-G2A-NFAT-bla Freestyle™293F cells
Assay: T-REx G2A NFAT-bla Freestyle 293F beta-lactamase reporter assay (inducer dose response)
Conditions: for EC50: Homo sapiens, FreeStyle 293-F
Experimental: In order to control the levels of G2A expression, G2A was placed under the control of an inducible promoter using Invitrogen's T-REx™ system. To again assess feasibility, pcDNA 5 G2A/TO was transiently transfected into CRE-bla Freestyle™ and NFAT-bla Freestyle™ cell lines stably expressing the T-REx™ Tet repressor plasmid (pcDNA6/TR; e.g., catalog# V1025-20, Invitrogen, Carlsbad, Calif.). The transfected cells were then treated with 10 ug/mL, 1 ug/mL, or 100 ng/mL tetracycline for 24 h to induce G2A expression. […] Stable pools of cells were created in both the TR CRE-bla and TR NFAT-bla Freestyle™293F backgrounds.
Stimulation Kinetics—Selected pools of both CRE-bla and NFAT-bla T-REx™ G2A Freestyle™ cells were stimulated with tetracycline for 3, 4, 5, or 24 h and loaded for 2 h with 1 μM LiveBLAzer™-FRET B/G substrate.
To improve the balance between tetracycline-induced signaling and cell death by testing shorter induction times, lower tetracycline concentrations and altered culture conditions were utilized to promote cell health. A 16 h tetracycline stimulation time was attempted on the pools from the first sort. Cells were plated at 10,000 cells/well 24 hours prior to assay in DMEM+10% dFBS and incubated at 37° C./5% CO2 until time of assay. The cells were stimulated for 16 hours (e.g., overnight) with a dilution series of the tetracycline. Following stimulation, the cells were loaded for 2 hours at room temperature in the dark with LiveBLAzer™-FRET B/G loading solution containing 1 μM substrate. This assay was done in Poly-D-Lysine coated plates.
Since G2A has no known agonists, doxycycline and tetracycline were compared as inducers of the assay. An antibiotic selected pool of cells were plated at 10,000 cells/well 24 hours prior to assay in DMEM+10% dFBS and incubated at 37° C./5% CO2 until time of assay. The cells were stimulated with a dilution series of each compound for 16 hours at 37° C./5% CO2 and loaded for 2 hours at room temperature in the dark with LiveBLAzer™-FRET B/G loading solution containing 1 μM substrate.
Cell Density/well—The influence of cell-plating density on assay performance was tested to find the density giving the best response and Z′ while maintaining the expected pharmacology. Cells were plated 24 hours prior to the assay at the densities indicated in FIG. 14 in DMEM+10% dFBS and incubated at 37° C./5% CO2 until the time of assay. The cells were stimulated for 16 hours at 37° C./5% CO2 with a dilution series of the doxycycline. After incubation, the cells were loaded for 2 hours at room temperature in the dark with LiveBLAzer™-FRET B/G loading solution containing 1 μM substrate.
DMSO Tolerance—Tests were performed related to assay performance as a function of DMSO concentration to determine the robustness of the assay to the range of DMSO challenge routinely encountered during high-throughput screening. Dose response curves were performed in the presence of 0%, 0.25%, 0.5%, or 1% DMSO. Cells were plated at 10,000 cells/well 24 hours prior to assay in DMEM+10% dFBS and incubated at 37° C./5% CO2 until time of assay. After incubation, DMSO was added to the wells to final concentrations of 0%, 0.25%, 0.5% and 1% DMSO. The cells were stimulated for 16 hours with a dilution series of the doxycycline. Following stimulation, the cells were loaded for 2 hours at room temperature in the dark with LiveBLAzer™-FRET B/G loading solution containing 1 μM substrate.
The substrate loading times were varied to find the time for an optimal assay performance. Cells were plated at 10,000 cells/well 24 hours prior to assay in DMEM+10% dFBS and incubated at 37° C./5% CO2 until time of assay. After incubation, DMSO was added to the wells to final concentration of 0.5%.

[1] = 60 min substrate loading, 10,000 cells/well, 0.5% DMSO, 16 h
[2] = 90 min substrate loading, 10,000 cells/well, 0.5% DMSO, 16 h
[3] = 120 min substrate loading, 10,000 cells/well, 0.5% DMSO, 16 h
[4] = representative data, 16 h, 0.5% DMSO, 2 h loading

C[C@H]1c2cccc(O)c2C(=O)C2=C(O)[C@]3(O)C(=O)C(C(N)=O)=C(O)[C@@H](N(C)C)[C@@H]3[C@@H](O)[C@@H]21 [Doxycycline]
RR (Max) (0.0% DMSO, 10,000 cells/well, 16 h): 6.9
RR (Max) (0.25% DMSO, 10,000 cells/well, 16 h): 7.2
RR (Max) (0.50% DMSO, 10,000 cells/well, 16 h): 6.5
RR (Max) (1.00% DMSO, 10,000 cells/well, 16 h): 5.4
RR (Max) (1,250 cells/well, clone #20, 16 h, 0.5% DMSO): 3.51
RR (Max) (2,500 cells/well, clone #20, 16 h, 0.5% DMSO): 4.8
RR (Max) [1]: 4.5
RR (Max) (5,000 cells/well, clone #20, 16 h, 0.5% DMSO): 5.93
RR (Max) [2]: 6.5
RR (Max) [3]: 6.5
RR (Max) (10,000 cells/well, clone #20, 16 h, 0.5% DMSO): 7.7
RR (Max) (Average of DR 1-3): 5.77
RR (Max) (DR 1 (reproducibility, separate day)): 5.36
RR (Max) (DR 2 (reproducibility, separate day)): 5.95
RR (Max) (DR 3 (reproducibility, separate day)): 5.99
RR (Max) (Fresh cells taken from culture): 5.99
RR (Max) (Frozen cells thawed immediately before use): 2.48
EC50 [1]: 0.162 ng/mL (≈ 0.364 nM)
EC50 [2]: 0.151 ng/mL (≈ 0.34 nM)
EC50 [3]: 0.172 ng/mL (≈ 0.388 nM)
EC50 (16 h, 0.0% DMSO, 10,000 cells/well): 0.159 ng/mL (≈ 0.358 nM)
EC50 (16 h, 0.25% DMSO, 10,000 cells/well): 0.197 ng/mL (≈ 0.444 nM)
EC50 (16 h, 0.50% DMSO, 10,000 cells/well): 0.172 ng/mL (≈ 0.388 nM)
EC50 (16 h, 1.00% DMSO, 10,000 cells/well): 0.187 ng/mL (≈ 0.422 nM)
EC50 (16 h, 1,250 cells/well, clone #20, 16 h, 0.5% DMSO): 0.305 ng/mL (≈ 0.687 nM)
EC50 (16 h, 2,500 cells/well, clone #20, 16 h, 0.5% DMSO): 0.216 ng/mL (≈ 0.485 nM)
EC50 (16 h, 5,000 cells/well, clone #20, 16 h, 0.5% DMSO): 0.199 ng/mL (≈ 0.447 nM)
EC50 (16 h, 10,000 cells/well, clone #20, 16 h, 0.5% DMSO): 0.291 ng/mL (≈ 0.655 nM)
EC50 (16 h, DR 1 (reproducibility, separate day), 10,000 cells/well, 0.5% DMSO): 0.246 ng/mL (≈ 0.553 nM)
EC50 (16 h, DR 2 (reproducibility, separate day), 10,000 cells/well, 0.5% DMSO): 0.0963 ng/mL (≈ 0.217 nM)
EC50 (16 h, DR 3 (reproducibility, separate day), 10,000 cells/well, 0.5% DMSO): 0.0533 ng/mL (≈ 0.12 nM)
EC50 (16 h, Fresh cells taken from culture, 10,000 cells/well): 0.0533 ng/mL (≈ 0.12 nM)
EC50 (16 h, Frozen cells thawed immediately before use, 10,000 cells/well, 16 h): > 0.985 ng/mL
EC50 (Average of DR 1-3): 0.132 ng/mL (≈ 0.297 nM)
EC50 (antibiotic selected pool, 10,000 cells/well, 16 h stimulation, 2 h loading): 1.6 ng/mL (≈ 3.6 nM)
EC50 [4]: 0.05 ng/mL (≈ 0.113 nM)
RR (Max) (antibiotic selected pool, 10,000 cells/well, 16 h stimulation): 3.3
times more potent than tetracycline (antibiotic selected pool, 16 h): ~30 times
EC100 [4]: 2.2 ng/mL
